Like-named read-outs stand apart in the source and are kept apart here.
Columns and labels:
[1] = test system: CaCO-2 cells; assay: Viability of CaCO-2 colon adenocarcinoma cells (MTT assay); type: cell-based; details: Homo sapiens, Caco-2, 240 h, 10 days, read-out: reduction in the number of viable cells, CaCO-2
Description: To quantify cell death, around the time when significant and characteristic morphological changes took place, cells were pulse-labeled for 10 minutes with [^3H]thymidine to measure DNA activity as described elsewhere [Tomono, M. and Kiss, Z. (1995), “Ethanol enhances the stimulatory effects of insulin and insulin-like growth factor-I on DNA synthesis in NIH 3T3 fibroblasts,” Biochem. Biophys. Res. Commun. 208, 63-67]. Also, cells were collected as suspensions using trypsin, an established method in cell biology, followed by re-plating of cells in fresh tissue culture medium. If no viable cells were obtained after one week in culture, it meant that the cells at the time of re-plating were dead. Survival values obtained with untreated cells were considered 100%. For the determination of relative number of viable cells after treatments, in most cases the MTT assay was used. This calorimetric assay is based on the ability of living cells, but not dead cells, to reduce 3-(4,5-dimethyl thiazol-2-yl)-2,5-diphenyltetrazolium bromide [Carmichael, J, De Graff, W. G., Gazdar, A. F., Minna, J. D. and Mitchell, J. B. (1987), “Evaluation of tetrazolium-based semi-automated calorimetric assay: Assessment of chemosensitivity testing,” Cancer Res. 47, 936-942]. For this assay, cells were plated in 96-well plates, and the MTT assay was performed both in untreated and treated cell cultures. […]

[2] = test system: HL-60, HT-168, PC-3 and T47D cells; assay: Viability of four human cancer cell types by Trypan blue exclusion; type: cell-based
Description: PC-3 human prostate adenocarcinoma cells were cultured in 12-well plates in Ham's F12 cell culture medium supplemented with 7% fetal bovine serum; the medium was changed for fresh 10% medium 2 hours prior to treatments. HL-60 human leukemia cells (in flasks) and HT 168 human melanoma cells were cultured in RPMI 1640 medium supplemented with 10% FCS; treatment of HL-60 and HT-168 cells were performed in flasks and 12-well plates, respectively. T47D cells were cultured in 12-well plates in RPMI 1640 medium supplemented with 2 mM L-glutamine, 10 mM Hepes, 1 mM sodium pyruvate, 4.5 g/L glucose, 1.5 g/L sodium bicarbonate, 0.2 I.U. bovine insulin/ml, and 10% fetal bovine serum; the medium was changed for fresh 10% serum-containing medium 2 hours prior to treatments. All cells were incubated for 96 hours in the absence (□) or presence of 25 μM CCDTHT ? , 50 μM CCDTHT ? , or 75 μM CCDTHT (▪). In this experiment, the viability of the cell cultures was estimated by Trypan blue exclusion using hematocytometer, a technique well known to one having ordinary skill in the art. Three independently treated cell cultures, involving at least 300 cells for each treatment, were analyzed. The experimental error is indicated as std. dev.

[3] = Body weight of animals in the MXT tumor model; type: in vivo, mouse; details: Example 31, CisPt 2 mg/kg i.p. and/or CCDTHT 4.6 mg/kg s.c.
Description: The mouse mammary MXT tumor was developed as described above. […] CCDTHT and CisPt were administered subcutaneously and intraperitoneally, respectively, once daily for 10 days, including a 2-day rest period after 5 days of treatment (i.e., the last treatment was on day 19). Each group consisted of 7 animals, and the mean values±std. dev. for tumor volumes and body weight are shown in TABLE 4 and TABLE 5, respectively.
The mouse mammary MXT tumor model was developed and treated as described above. […] CisPt and PALP were administered intraperitoneally and subcutaneously, respectively, seven times on every second day (i.e., treatments were terminated on day 21). Each group included 7 animals; the mean values±std. dev. for tumor volumes and body weight are shown in TABLE 6 and TABLE 7, respectively.
The mouse mammary MXT tumor model was developed and treated as described above. […] In each group 7 mice were included. The mean values±std. dev. for tumor volumes and body weights are shown in TABLE 9 and TABLE 10, respectively.

[4] = Solubility in water

CC[N+](C)(CC)CCOCc1ccc2sc3ccccc3c(=O)c2c1.[I-] [CCDTHT, N,N-diethyl-N-methyl-2-[(9-oxo-9H-thioxanthen-2-yl)methoxy]-ethanaminium iodide]
cytotoxicity at 100 µM [1]: ≤ 50%
number of viable cancer cells, HL-60, HT-168, PC-3 and T47D ([2]; 50-75 μM, four days): strongly decreased
inhibition at 25 µM ([2]; Homo sapiens, 25 μM, 96 hours, Trypan blue, read-out: inhibition of cell proliferation, HL60, HT-168, PC-3 and T47D cells): 40 to 55%
cytotoxicity at 75 µM ([2]; Homo sapiens, 75 μM, 96 hours, Trypan blue, read-out: decrease in the number of viable cells, HL60, HT-168, PC-3 and T47D cells): 65 to 85%
Body weight, Day 14 ([3]; once daily): 25.1 ± 0.84 g
Body weight, Day 18 ([3]; once daily): 26.9 ± 0.93 g
Body weight, Day 21 ([3]; once daily): 28.8 ± 0.91 g
Body weight, Day 7 ([3]; start of treatment): 22.8 ± 0.82 g
solubility in water [4]: sufficiently soluble in water for injection
solubility in water ([4]; listed as CCompound3): soluble in water
